Measured values: patent US20070141171A1, “NOVEL COMPOSITION AND METHOD FOR THE TREATMENT OF HYPERTENSION” (priority 2003, published 2007)

What was measured:
Format in all cases: cell-based
[1] = system: cultured human aortic smooth muscle cells (SMC); assay: SMC collagen gel contraction stimulated by angiotensin II; conditions: for activity as inhibitor of Ang II-stimulated gel contraction: summary statement; for GA, % vs 100% control / increase in gel area (GA) vs ATII: 30 mcM; for GA, % vs 100% control: ATII alone 76%; for rank of effectiveness on ATII (polyphenols) / rank of effectiveness on ATII-induced gel contraction (catechins): at 30; for effect on ATII-induced gel: 1-4 mM, individual or comb
Description: Plant-derived bioflavonoids have been recognized to support arterial wall structural integrity and interfere with a variety of pro-atherosclerotic stimuli. We tested whether bioflavonoids have an effect on the contractile activity of cultured human aortic smooth muscle cells (SMC) embedded in a three-dimensional type I collagen (1 mg/mL) matrix. […]
The following starting material and equipment were used. • 1. Cultured vascular smooth muscle cells (SMC) isolated from human aorta.
Cells are used from 4th to 8th passages. • 2. Human collagen type I. • 3. Angiotensin II. • 4. Epican Forte (composition shown in Table 1, available from Matthias Rath, Inc., and all ingredients commercially available) • 5. Epigallocatechin gallate (EGCG) • 6. Quercetin (chemical structure is well defined) • 7. Cell culture medium (DMEM) • 8. 24 well plastic cell culture plate pre-incubated with 2 mg/ml bovine serum albumin. • 9. Digital camera • 10. Digital image analyzing software (Scion Corporation). • 11. Zymography gel electrophoresis assay (Novorex Corp).
Confluent culture of SMC and suspended from culture flask by trypsinization and washed with phosphate-buffered saline (PBS) from serum-containing medium. Cell concentration in suspension was brought to 500,000 cell per mL in serum-free DMEM. Cell suspension was then mixed 1:1 with ice-cold 2 mg/ml collagen type I solution in PBS. Final concentration of collagen was 1 mg/mL, final cell concentration is 250,000 per mL. Collagen-SMC suspension was distributed by 300 microL to the wells of 24 well plate in such a manner to cover the entire bottom surface of the well. The plate was then incubated for one hour at 37° C. to allow gel to polymerize. 0.5 mL of experimental serum-free medium containing no additions (control), […] was added to polymerized gel, plate was then gently tapped on the side to detach gel from the bottom of plastic well, and plate was then placed to incubator with the controlled atmosphere containing 5%CO2 at 37° C. for incubation. After 24 hour incubation plate was taken from the incubator and plate image with floating gels was taken using digital camera. Gel flat surface area is measured with digital image analyzing software. Sample of cell culture media was taken for analysis of matrix metalloproteinases activity by zymography (Novorex Corp). Experiments were performed in triplicates and results are presented as a mean +/−SD.

[2] = system: cultured human aortic smooth muscle cells (SMC); assay: SMC collagen gel contraction stimulated by Thrombin; conditions: for GA, % vs 100% control: 30 mcM, Thrombin alone 70%
[3] = system: cultured human aortic smooth muscle cells (SMC); assay: SMC collagen gel contraction stimulated by Angiotensin I; conditions: Mar. 25, 2003; ATI 330-1000 nM alone
[4] = Mar. 25, 2003, in combination with EF

In the case of O=C(O)[C@@H]1CCCN1 [Proline], the “effect on ATII GA reduction” value ([1]; Mar. 28, 2003, 0.25-1 mM) is reported as “did not effect”.
For CC(=O)N[C@@H](CS)C(=O)O [NAC, N-Acetyl Cystein], the “GA returned to % of control” value ([1]; Mar. 26, 2003, NAC 2 mcM, ATII 1 mcM (21% reduction)) was 100% and the “effect on ATII GA reduction” value ([1]; Mar. 26, 2003, NAC higher concentration up to 60 mcM) was “did not have any effect”.
N=C(N)NCCC[C@H](N)C(=O)O [Arginine] was tested, and the “effect on ATII-induced gel reduction” value ([1]; Mar. 20, 2003, Arginine 0.5-2 mM) was “no significant effect”.
O=c1c(O)c(-c2ccc(O)c(O)c2)oc2cc(O)cc(O)c12 [Quercetin] was tested, and the “activity as inhibitor of Ang II-stimulated gel contraction” value (“activity as inhibitor” below) ([1]; 1 micromol/L Ang II, 24 hours) was “most active inhibitors of gel contraction”, the “GA, % vs 100% control” value ([1]; Apr. 2, 2003) was 167% and the “rank of effectiveness on ATII (polyphenols)” value (shortened to “rank … (polyphenols)”) ([1]; Apr. 17, 2003) was “Querc30=>Genist30=>Resver30=>Rutin30”. For the same molecule, the inhibition at 30 µM ([1]; Homo sapiens, 30 micromol/L, 1 micromol/L Ang II, 24 hours, read-out: inhibition of Ang II-induced gel contraction) was 120% and the “GA, % vs 100% control” value ([2]; Apr. 2, 2003) was 133%.
With O=C1O[C@H]([C@@H](O)CO)C(O)=C1O [AsA, ascorbic acid] the “activity as inhibitor” value ([1]; 1 micromol/L Ang II, 24 hours) was “not significantly active”, the “effect on ATII GA reduction” value ([1]; Apr. 2, 2003, AsA 200 mcM) was “had no effect” and the “effect on ATII-induced gel reduction” value ([1]; Apr. 17, 2003, AsA 500 mcM alone) was “did not have effect”. For the same molecule, the “effect on ATII-induced gel reduction” value ([1]; Apr. 17, 2003, AsA 500 mcM in combination with 10 EGCG) was “did not have effect”, the “gel reduction to % of 100% control” value ([1]; Mar. 18, 2003, ATII 1 mcM + AsA 100 mcM) was 30% and the “gel reduction to % vs 100% ATII 1 mcM” value ([1]; Mar. 20, 2003, AsA 0.5 mM + ATII) was 90%. The “effect on Thrombin GA reduction” value ([2]; Apr. 2, 2003, AsA 200 mcM) was “had no effect”.
In the case of Oc1ccc(C=Cc2cc(O)cc(O)c2)cc1 [Resveratrol], the “GA, % vs 100% control” value ([1]; Apr. 2, 2003) is reported as 88%, the “rank … (polyphenols)” value ([1]; Apr. 17, 2003) is reported as “Querc30=>Genist30=>Resver30=>Rutin30” and the “effect on gel area vs ATII” value ([1]; Mar. 25, 2003, 15 mcM, alone) is reported as “no effect”. The “effect on EF effect” value ([1]; Mar. 25, 2003, 15 mcM, with EF) was “no effect”, the “increase in gel area (GA) vs ATII” value ([1]; Mar. 25, 2003, alone) was 45% and the “increase in gel area (GA) vs ATII” value [1, 4] was 104%. The “GA, % vs 100% control” value ([2]; Apr. 2, 2003) was 106%.
For “Angiotensin II (DRVYIHPF; Angiotensin-2; UniProt P01019 25-32, looked up) [ATII, stimulus of gel contraction, reference compound]”, the “GA reduced by” value ([1]; Apr. 2, 2003, ATII alone at 1 mcM) was 24%, the “effect on gel contraction” value ([1]; Mar. 7, 2003, ATII 1 mcM alone) was “no effects” and the “gel reduction to % of Control 100%” value ([1]; Mar. 11, 2003, ATII 1 mcM alone) was 59%. The “gel reduction to % of 100% control” value ([1]; Mar. 18, 2003, ATII 1 mcM alone) was 23%, the “gel reduction to % of 100% control” value ([1]; Mar. 20, 2003, ATII 1 mcM alone) was 81% and the reduction in gel ([1]; Mar. 25, 2003, ATII 110-330-1000 nM alone) was “dose dependent reduction in gel”. For the same molecule, the GA reduction ([1]; Mar. 26, 2003, ATII 1 mcM alone) was 21%.
In the case of Oc1cc(O)c2c(c1)O[C@H](c1ccc(O)c(O)c1)[C@H](O)C2 [EC], the “rank of effectiveness on ATII-induced gel contraction (catechins)” value (“rank of effectiveness … (catechins)” below) ([1]; Apr. 17, 2003) is reported as “EC=C”.
For O=c1c(-c2ccc(O)cc2)coc2cc(O)cc(O)c12 [Genistein], the “GA, % vs 100% control” value ([1]; Apr. 2, 2003) was 96%, the “rank … (polyphenols)” value ([1]; Apr. 17, 2003) was “Querc30=>Genist30=>Resver30=>Rutin30” and the “increase in gel area (GA) vs ATII” value ([1]; Mar. 25, 2003, alone) was 34%. The “increase in gel area (GA) vs ATII” value [1, 4] was 11% and the “GA, % vs 100% control” value ([2]; Apr. 2, 2003) was 78%.
With Oc1cc(O)c2c(c1)OC(c1ccc(O)c(O)c1)C(O)C2 (stereo not drawn) [C] the “rank of effectiveness … (catechins)” value ([1]; Apr. 17, 2003) was “EC=C”.
With [Ca+2] [Ca] the “effect on ATII-induced gel” value ([1]; Mar. 20, 2003) was “no effects”.
In the case of O=C(O[C@@H]1Cc2c(O)cc(O)cc2O[C@@H]1c1ccc(O)c(O)c1)c1cc(O)c(O)c(O)c1 [ECG], the “rank of effectiveness … (catechins)” value ([1]; Apr. 17, 2003) is reported as “more effective than EC=C”.
For Thrombin [reference compound], the “GA reduced by” value ([2]; Apr. 2, 2003, Thrombin alone at 1 mcM) was 30%, the “effect on gel contraction” value ([2]; Mar. 7, 2003, Thrombin 0.1 U/mL alone) was “no effects” and the “gel reduced by” value ([2]; Mar. 10, 2003, Thrombin 0.1 U/mL alone, 9% in control) was 58%.
In the case of “Angiotensin I (DRVYIHPFHL; Angiotensin-1; UniProt P01019 25-34, looked up) [ATI, stimulus of gel contraction]”, the gel reduction [3] is reported as “gel reduction at 1000 nM only”.
[Mg+2] [Mg] was tested, and the “effect on ATII-induced gel” value ([1]; Mar. 20, 2003) was “no effects”.
In the case of NCCCC[C@H](N)C(=O)O [Lysine], the “effect on ATII GA reduction” value ([1]; Mar. 28, 2003, 0.25-1 mM) is reported as “did not effect”.
For C[C@@H]1O[C@@H](OC[C@H]2O[C@@H](Oc3c(-c4ccc(O)c(O)c4)oc4cc(O)cc(O)c4c3=O)[C@H](O)[C@@H](O)[C@@H]2O)[C@H](O)[C@H](O)[C@H]1O [Rutin], the “GA, % vs 100% control” value ([1]; Apr. 2, 2003) was 80% and the “GA, % vs 100% control” value ([2]; Apr. 2, 2003) was 56%.
For O=C(O[C@@H]1Cc2c(O)cc(O)cc2O[C@@H]1c1cc(O)c(O)c(O)c1)c1cc(O)c(O)c(O)c1 [EGCG, Epigallocatechin gallate], the “activity as inhibitor” value ([1]; 1 micromol/L Ang II, 24 hours) was “most active inhibitors of gel contraction”, the “inhibition of Ang II-induced gel contraction” value ([1]; 30 micromol/L, 1 micromol/L Ang II, 24 hours) was 97% and the “GA, % vs 100% control” value ([1]; Apr. 2, 2003) was 150%. For the same molecule, the “effect on gel contraction by ATII” value ([1]; Apr. 17, 2003, EGCG 3.3-10-30 mcM) was “dose-dependently reduced gel contraction”, the “rank of effectiveness … (catechins)” value ([1]; Apr. 17, 2003) was “more effective than ECG30” and the “gel reduction to % of 100% control” value ([1]; Mar. 18, 2003, ATII 1 mcM + EGCG 15 mcM) was 30%. For the same molecule, the “GA, % vs 100% control” value ([2]; Apr. 2, 2003) was 206%.
